In patent US7863315B2, “2-indolinone derivatives as selective histone deacetylase inhibitors” (Shenzhen Chipscreen Biosciences, Ltd., priority 2008, dated 2011):

What was measured:
Type in all cases: cell-based
[1] = target: T1, HDAC6 (α-tubulin acetylation) (Homo sapiens, UniProt Q9UBN7); experiment: ELISA assay of acetylation of α-tubulin in HeLa cells; conditions: M-HeLa, 24 hours
T1 construct: endogenous in cells; host or cells: HeLa
T1 sequence (Q9UBN7 1-1215): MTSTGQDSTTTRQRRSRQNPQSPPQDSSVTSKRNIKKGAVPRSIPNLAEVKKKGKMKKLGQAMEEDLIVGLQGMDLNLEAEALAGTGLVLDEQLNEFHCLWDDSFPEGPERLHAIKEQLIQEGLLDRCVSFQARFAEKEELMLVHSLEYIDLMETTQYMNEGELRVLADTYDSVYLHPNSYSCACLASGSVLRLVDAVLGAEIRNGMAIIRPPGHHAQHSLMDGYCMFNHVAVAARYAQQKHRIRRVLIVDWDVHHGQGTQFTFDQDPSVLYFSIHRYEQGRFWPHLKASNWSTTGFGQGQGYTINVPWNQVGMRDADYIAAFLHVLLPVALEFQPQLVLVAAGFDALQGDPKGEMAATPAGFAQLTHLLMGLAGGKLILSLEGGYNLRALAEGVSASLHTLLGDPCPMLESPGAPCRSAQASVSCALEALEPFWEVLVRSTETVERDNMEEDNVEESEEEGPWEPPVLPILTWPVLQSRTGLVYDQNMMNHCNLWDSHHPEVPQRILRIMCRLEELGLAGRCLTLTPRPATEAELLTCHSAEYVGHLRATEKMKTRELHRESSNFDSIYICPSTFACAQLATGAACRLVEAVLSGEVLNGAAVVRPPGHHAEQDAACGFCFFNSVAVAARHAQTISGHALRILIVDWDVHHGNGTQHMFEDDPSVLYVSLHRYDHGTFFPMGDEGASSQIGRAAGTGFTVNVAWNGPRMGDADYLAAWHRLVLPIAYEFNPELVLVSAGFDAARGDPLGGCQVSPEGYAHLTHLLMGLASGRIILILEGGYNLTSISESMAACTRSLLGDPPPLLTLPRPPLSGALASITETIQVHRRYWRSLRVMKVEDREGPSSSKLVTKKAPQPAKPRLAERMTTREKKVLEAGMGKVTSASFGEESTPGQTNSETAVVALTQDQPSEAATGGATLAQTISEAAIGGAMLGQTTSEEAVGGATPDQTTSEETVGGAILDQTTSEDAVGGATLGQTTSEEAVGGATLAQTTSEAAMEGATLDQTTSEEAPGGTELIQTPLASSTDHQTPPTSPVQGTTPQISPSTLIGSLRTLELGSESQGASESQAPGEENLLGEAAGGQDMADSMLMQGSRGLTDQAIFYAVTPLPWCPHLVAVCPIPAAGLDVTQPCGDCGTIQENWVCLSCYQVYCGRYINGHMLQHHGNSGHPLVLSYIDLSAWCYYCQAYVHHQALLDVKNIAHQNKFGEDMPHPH
Procedure: Measurement of acetylation activity in cells on substrates:
ELISA assay of acetylation of α-tubulin
This assay is used to measure in vivo inhibition of HDAC6 in a cytoblot assay. Materials and Reagent: • 1. 24-well tissue culture • 2. DMEM Medium containing 10% FBS • 3. 96-well white plate • 4. HeLa cell line • 5. M-PER Mammalian Protein Extraction Reagent (Pierce) • 6. Bradford assay reagent • 7. Anti-acetyl-tubulin (Upstate) • 8. HRP-labeled anti-mouse IgG (Upstate) • 9. Coating Buffer: 15 mM Na2CO3, 35 mM NaHCO3 (pH 9.6) • 10. 10×PBS: 0.58 M Na2HPO4, 0.17M NaH2PO4, 0.68M NaCl (pH 7.4) • 11. Wash Buffer:1×PBS containing 0.05% Tween-20 (PBST) • 12. Blocking Buffer:10 mg/ml bocine serum albumin (BSA) in PBS • 13. Antibody Dilution Buffer: 5 mg/ml BSA in PBST • 14. Enhanced chemiluminescence (ECL) (Amersham)
Procedure for performing the assay in 96-well plate: • 1. HeLa cells were seeded at a density of 60000 cells/500 μl/well in 24-well plate and incubated at 37° C. for 24 hours. • 2. Compounds were added and incubated for 24 hours at 37° C. • 3. Culture medium was removed, then washes the cells twice with ice-cold PBS. • 4. Add 100 μl/well of Protein Extraction Reagent and gently shake the mixture for 5 minutes. • 5. Collect the lysate to a 96-well plate respectively. Determine the concentration of protein by Bradford assay. • 6. Coat the wells of a 96-well white plate with 100 μl/well of 2.5 μg whole cell protein in Coating Buffer by incubating overnight at 4° C. • 7. Discard the uncoated proteins and wash the coated wells three times with 200 μl/well of PBST. • 8. Block coated wells by incubating the plate with 200 μl/well of Blocking Buffer for 1 hour at 37° C. • 9. Wells were aspirated and washed three times with 200 μl/well of PBST. • 10. After aspirating, 50 μl/well of Antibody Dilution Buffer containing anti-Ac-tubulin (1:1000) were added to each well and incubated for 2 hour at 37° C. • 11. Wells were aspirated and washed three times with 200 μl/well of PBST. • 12. 50 μl/well of Antibody Dilution Buffer containing HRP-labeled anti-mouse IgG (1:2000) were added to each well and incubated for 2 hour at 37° C. • 13. Wells were aspirated and washed three times with 200 μl/well of PBST. • 14. Wells were washed three times with 200 μl/well of purified water. • 15. Add 50 μl/well of ECL mixture, then read the plates on the plate reader.

[2] = system: Hut-78 human T lymphoma cell line; experiment: Anti-cell proliferation (MTS), Hut-78; conditions: HuT78, 72 hours
Procedure: (§1) Measurement of in vivo cell proliferation:
(§2) Tumor cells were trypsinized and plated into 96-well plates at 3,000 per well and incubated in complete medium with 10% FBS for 24 hours. Compounds were added over a final concentration range of 100 μmol/L to 100 nmol/L in 0.1% DMSO and incubated for 72 hours in complete medium. The effects on proliferation were determined by addition of MTS reagent (Promega) according to the instruction, incubation for 2 hours at 37° C. in CO2 incubator, and record the absorbance at 490 nm using an ELISA plate reader.

[3] = system: A549 human lung cancer cell line; experiment: Anti-cell proliferation (MTS), A549; conditions: 72 hours
Procedure: as §1, §2

[4] = system: HeLa human cervical cancer cell line; experiment: Anti-cell proliferation (MTS), HeLa; conditions: 72 hours
Procedure: as §1, §2

[5] = system: HL60 human leukemia cell line; experiment: Anti-cell proliferation (MTS), HL60; conditions: HL-60, 72 hours
Procedure: as §1, §2

SMILES | fold induction at 10 µM [1] | other results
Cc1[nH]c(/C=N/N=C2\C(=O)Nc3ccc(F)cc32)c(C)c1C(=O)NCCCCC(=O)Nc1ccccc1N [Example 7, 5-(5-(((5-fluoro-2-oxoindolin-3-ylidene)hydrazono)methyl)-2,4-dimethyl-1H-pyrrole-3-carboxamido)-N-(2-aminophenyl)pentanamide] | 1.03 | 
Cc1[nH]c(/C=N/N=C2\C(=O)Nc3ccc(F)cc32)c(C)c1C(=O)NCCCCC(=O)Nc1ccc(F)cc1N [Example 8, 5-(5-(((5-fluoro-2-oxoindolin-3-ylidene)hydrazono)methyl)-2,4-dimethyl-1H-pyrrole-3-carboxamido)-N-(2-amino-4-fluorophenyl)pentanamide] | 1.76 | 
Cc1[nH]c(/C=N/N=C2\C(=O)Nc3ccc(F)cc32)c(C)c1C(=O)NCCCCCC(=O)NO [Example 11, 6-(5-(((5-fluoro-2-oxoindolin-3-ylidene)hydrazono)methyl)-2,4-dimethyl-1H-pyrrole-3-carboxamido)-N-hydroxyhexanamide] | 2.17 | 
Cc1[nH]c(/C=N/N=C2\C(=O)Nc3ccc(F)cc32)c(C)c1C(=O)NCCCCCC(=O)Nc1ccc(F)cc1N [Example 12, 6-(5-(((5-fluoro-2-oxoindolin-3-ylidene)hydrazono)methyl)-2,4-dimethyl-1H-pyrrole-3-carboxamido)-N-(2-amino-4-fluorophenyl)hexanamide] | 2.04 | 
Cc1[nH]c(/C=N/N=C2\C(=O)Nc3ccc(F)cc32)c(C)c1C(=O)NCCCCCC(=O)Nc1ccccc1N [Example 13, 6-(5-(((5-fluoro-2-oxoindolin-3-ylidene)hydrazono)methyl)-2,4-dimethyl-1H-pyrrole-3-carboxamido)-N-(2-aminophenyl)hexanamide] | 2.73 | 
Cc1[nH]c(/C=N/N=C2\C(=O)Nc3ccc(F)cc32)c(C)c1C(=O)NCCCCCCCC(=O)NO [Example 26, 8-(5-(((5-fluoro-2-oxoindolin-3-ylidene)hydrazono)methyl)-2,4-dimethyl-1H-pyrrole-3-carboxamido)-N-hydroxyoctanamide] | 1.85 | GI50 [2]: 14.1 µM; GI50 [3]: 35.5 µM; GI50 [4]: 25.7 µM; GI50 [5]: 9.33 µM
Cc1[nH]c(/C=N/N=C2\C(=O)Nc3ccc(F)cc32)c(C)c1C(=O)NCCCCCCCC(=O)Nc1ccc(F)cc1N [Example 27, 8-(5-(((5-fluoro-2-oxoindolin-3-ylidene)hydrazono)methyl)-2,4-dimethyl-1H-pyrrole-3-carboxamido)-N-(2-amino-4-fluorophenyl)octanamide] | 1.64 | GI50 [2]: 6.92 µM; GI50 [3]: > 100 µM; GI50 [4]: > 100 µM; GI50 [5]: 5.89 µM
Cc1[nH]c(/C=N/N=C2\C(=O)Nc3ccc(F)cc32)c(C)c1C(=O)NCCCCCCCC(=O)Nc1ccccc1N [Example 28, 8-(5-(((5-fluoro-2-oxoindolin-3-ylidene)hydrazono)methyl)-2,4-dimethyl-1H-pyrrole-3-carboxamido)-N-(2-aminophenyl)octanamide] | 1.74 | GI50 [2]: 4.27 µM; GI50 [3]: 36.3 µM; GI50 [4]: 28.2 µM; GI50 [5]: 4.37 µM
O=C(CCCCCNC(=O)c1ccc(/C=N/N=C2\C(=O)Nc3ccc(F)cc32)cc1)NO [Example 31, 6-(4-(((5-fluoro-2-oxoindolin-3-ylidene)hydrazono)methyl)benzamido)-N-hydroxyhexanamide] | 1.88 | 
Nc1ccccc1NC(=O)CCCCCNC(=O)c1ccc(/C=N/N=C2\C(=O)Nc3ccc(F)cc32)cc1 [Example 32, 6-(4-(((5-fluoro-2-oxoindolin-3-ylidene)hydrazono)methyl)benzamido)-N-(2-aminophenyl)hexanamide] | 2.59 | 
Nc1ccccc1NC(=O)CCCCCCCNC(=O)c1ccc(/C=N/N=C2\C(=O)Nc3ccc(F)cc32)cc1 [Example 35, 8-(4-(((5-fluoro-2-oxoindolin-3-ylidene)hydrazono)methyl)benzamido)-N-(2-aminophenyl)octanamide] | 1.39 | 
O=C(CCCCCNC(=O)c1ccc(/C=C2\C(=O)Nc3ccc(F)cc32)cc1)NO [Example 41, 6-(4-((5-fluoro-2-oxoindolin-3-ylidene)methyl)benzamido)-N-hydroxyhexanamide] | 1.47 | 
Nc1cc(F)ccc1NC(=O)CCCCCNC(=O)c1cccc(/C=C2\C(=O)Nc3ccc(F)cc32)c1 [Example 45, 6-(3-((5-fluoro-2-oxoindolin-3-ylidene)methyl)benzamido)-N-(2-amino-4-fluorophenyl)hexanamide] | 1.64 | 
O=C(CCCCCNC(=O)c1cccc(/C=C2\C(=O)Nc3ccc(F)cc32)c1)NO [Example 46, 6-(3-((5-fluoro-2-oxoindolin-3-ylidene)methyl)benzamido)-N-hydroxyhexanamide] | 2.07 | 
Nc1ccccc1NC(=O)CCCCNC(=O)c1cccc(/C=C2\C(=O)Nc3ccc(F)cc32)c1 [Example 49, 5-(3-((5-fluoro-2-oxoindolin-3-ylidene)methyl)benzamido)-N-(2-aminophenyl)pentanamide] | 2.39 | 
O=C(CCCCNC(=O)c1cccc(/C=C2\C(=O)Nc3ccc(F)cc32)c1)NO [Example 51, 5-(3-((5-fluoro-2-oxoindolin-3-ylidene)methyl)benzamido)-N-hydroxypentanamide] | 1.97 | 
Nc1cc(F)ccc1NC(=O)CCCCCCCNC(=O)c1cccc(/C=C2\C(=O)Nc3ccc(F)cc32)c1 [Example 55, 8-(3-((5-fluoro-2-oxoindolin-3-ylidene)methyl)benzamido)-N-(2-amino-4-fluorophenyl)octanamide] | 1.49 | 
